Data set [1] has as its system WT HIV-1 (IIIB). Description: microbe, parasite or virus in culture. In kind it is cell-based. The settings on record: for EC50: Human immunodeficiency virus 1, IIIB, MT4, read-out: EC50 IIIB; for SI IIIB: ratio of CC50/EC50, IIIB.
Data set [2] relates to HIV-1 RES056 (K103N/Y181C). Description: microbe, parasite or virus in culture. It is filed as cell-based. As to conditions: for EC50: Human immunodeficiency virus 1, MT4, read-out: EC50 RES056; for SI RES056: ratio of CC50/EC50, RES056.
The subject of data set [3] is HIV-1 mutant strain L100I. Description: microbe, parasite or virus in culture. It is filed as cell-based. The settings on record: Human immunodeficiency virus 1, MT4, read-out: EC50 L100I.
Data set [4] relates to HIV-1 mutant strain K103N. The data set can be described thus: microbe, parasite or virus in culture. It is filed as cell-based. The settings on record: Human immunodeficiency virus 1, MT4, read-out: EC50 K103N.
Data set [5] relates to HIV-1 mutant strain Y181C. The data set can be described thus: microbe, parasite or virus in culture. As to conditions: Human immunodeficiency virus 1, MT4, read-out: EC50 Y181C. It is filed as cell-based.
For data set [6], the system named is HIV-1 mutant strain Y188L. Description: microbe, parasite or virus in culture. In kind it is cell-based. As to conditions: Human immunodeficiency virus 1, MT4, read-out: EC50 Y188L.
Data set [7] deals with HIV-1 mutant strain E138K. The data set can be described thus: microbe, parasite or virus in culture. The settings on record: Human immunodeficiency virus 1, MT4, read-out: EC50 E138K. It is filed as cell-based.
The subject of data set [8] is HIV-1 double mutant strain F227L/V106A. The data set can be described thus: microbe, parasite or virus in culture. In kind it is cell-based. As to conditions: Human immunodeficiency virus 1, MT4, read-out: EC50 F227L/V106A.
Data set [9] in a line: Cytotoxicity in mock-infected MT-4 cells. As to conditions: human.

For orientation: CC50 means the concentration that lowers cell viability or growth by half. A high value points to lower toxicity to the cells.

Take `Cc1cc(C#N)cc(C)c1Oc1nc(NC2CCN(Cc3ccc(P(=O)(OC(C)C)OC(C)C)cc3)CC2)nc2ccsc12` [9f, Diisopropyl (4-((4-((4-(4-cyano-2,6-dimethylphenoxy)thieno[3,2-d]pyrimidin-2-yl)amino)piperidin-1-yl)methyl)phenyl)phosphonate]: the EC50 in [1] is 24.8 ± 14.8 nM; in data set [2], 514 ± 57.1 nM; in [3] it was 29.5 ± 14.2 nM; in [4], 22.6 ± 7.83 nM; in [5] it was 73.5 ± 69.4 nM; in [6], 42 ± 11.7 nM. Moreover, the EC50 in data set [7] worked out at 41.3 ± 15.3 nM; in data set [8], 28.4 ± 13.4 nM. The “SI IIIB” value in data set [1] came to 4476. The “SI RES056” value in data set [2] came to 216. Also, it took 111 ± 33.6 µM to reach half-maximal cytotoxicity in [9] (CC50 at 5 days).

With `Cc1cc(C#N)cc(C)c1Oc1nc(NC2CCN(Cc3ccc(P(=O)(OCC(F)(F)F)OCC(F)(F)F)cc3)CC2)nc2ccsc12` [9e, Bis(2,2,2-trifluoroethyl) (4-((4-((4-(4-cyano-2,6-dimethylphenoxy)thieno[3,2-d]pyrimidin-2-yl)amino)piperidin-1-yl)methyl)phenyl)phosphonate], the EC50 in data set [1] was 33 ± 7.63 nM; in data set [2] it was 1300 ± 120 nM; in data set [3], 165 ± 111 nM; in data set [4], 45.8 ± 4.61 nM; in [5] it was 248 ± 60.4 nM; in [6] it was 142 ± 63.3 nM. In addition, the EC50 in [7] was 137 ± 83 nM; in data set [8], 65.1 ± 19.5 nM. Besides, in data set [1], the “SI IIIB” value turned out to be 527. Besides, in [2], the “SI RES056” value stood at 13. In addition, the CC50 at 5 days in [9] worked out at 17.4 ± 2.85 µM.

With `Cc1cc(C#N)cc(C)c1Oc1nc(NC2CCN(Cc3ccc(P(=O)(OC(C)(C)C)OC(C)(C)C)cc3)CC2)nc2ccsc12` [9g, Di-tert-butyl (4-((4-((4-(4-cyano-2,6-dimethylphenoxy)thieno[3,2-d]pyrimidin-2-yl)amino)piperidin-1-yl)methyl)phenyl)phosphonate], the EC50 was 99.3 ± 37 nM in data set [1]; greater than 16300 nM in data set [2]; 310 ± 57.8 nM in data set [3]; 124 ± 26.2 nM in data set [4]; 719 ± 263 nM in data set [5]; 445 ± 157 nM in [6]. In addition, the EC50 came out at 179 ± 19.8 nM in [7] and 637 ± 492 nM in data set [8]. In addition, the “SI IIIB” value in data set [1] is 164. The “SI RES056” value in data set [2] is on record as less than 1. In data set [9], this compound had a CC50 at 5 days of 16.3 ± 4.28 µM.

`CCOP(=O)(OCC)c1ccc(CN2CCC(Nc3nc(Oc4c(C)cc(/C=C/C#N)cc4C)c4sccc4n3)CC2)cc1` [15c, Diethyl (E)-(4-((4-((4-(4-(2-cyanovinyl)-2,6-dimethylphenoxy)thieno[3,2-d]pyrimidin-2-yl)amino)piperidin-1-yl)methyl)phenyl)phosphonate]: the EC50 in data set [1] stood at 26.4 ± 15.1 nM; in [2], 110 ± 27.2 nM; in data set [3], 20.1 ± 10.8 nM; in data set [4], 15.5 ± 1.21 nM; in data set [5] it was 44.1 ± 25.6 nM; in data set [6], 62.4 ± 22.7 nM. For the same compound, the EC50 came to 56.6 ± 19.1 nM in [7] and 27.1 ± 10.7 nM in [8]. Moreover, in data set [1], the “SI IIIB” value is 309. Besides, the “SI RES056” value in [2] is on record as 74. In data set [9], this compound had a CC50 at 5 days of 8.15 ± 0.64 µM.

In the case of `Cc1cc(/C=C/C#N)cc(C)c1Oc1nc(NC2CCN(Cc3ccc(P(=O)(OCC(C)C)OCC(C)C)cc3)CC2)nc2ccsc12` [15h, Diisobutyl (E)-(4-((4-((4-(4-(2-cyanovinyl)-2,6-dimethylphenoxy)thieno[3,2-d]pyrimidin-2-yl)amino)piperidin-1-yl)methyl)phenyl)phosphonate], the EC50 was 151 ± 48.4 nM in data set [1]; 2200 ± 360 nM in data set [2]; 712 ± 158 nM in data set [3]; 239 ± 27 nM in [4]; 1120 ± 106 nM in data set [5]; 860 ± 218 nM in data set [6]. The EC50 in data set [7] is 758 ± 249 nM; in data set [8], 886 ± 167 nM. Further, in [1], the “SI IIIB” value amounted to 109. Further, the “SI RES056” value in data set [2] is 8. In addition, half-maximal cytotoxicity in data set [9] (CC50 at 5 days) was put at 16.5 ± 2.05 µM.

`Cc1cc(/C=C/C#N)cc(C)c1Oc1nc(NC2CCN(Cc3ccc(P(=O)(O)O)cc3)CC2)nc2ccsc12` [compound 16, (E)-(4-((4-((4-(4-(2-Cyanovinyl)-2,6-dimethylphenoxy)thieno[3,2-d]pyrimidin-2-yl)amino)piperidin-1-yl)methyl)phenyl)phosphonic acid]: the EC50 in data set [1] stood at 3810 ± 1520 nM; in data set [2], 170000 nM; in [3] it was 13600 nM; in data set [4] it was 6270 ± 1900 nM; in data set [5], 30400 nM; in [6] it was 133000 nM. Also, the values for the EC50 in data set [7] and in data set [8] were 19100 nM and 43500 nM, respectively. Further, the “SI IIIB” value in data set [1] is greater than 57. Besides, in [2], the “SI RES056” value is reported as greater than 1. The CC50 at 5 days in [9] was greater than 217 µM.

Consider `Cc1cc(C#N)cc(C)c1Oc1nc(NC2CCN(Cc3ccc(P(=O)(OCC(C)C)OCC(C)C)cc3)CC2)nc2ccsc12` [9h, Diisobutyl (4-((4-((4-(4-cyano-2,6-dimethylphenoxy)thieno[3,2-d]pyrimidin-2-yl)amino)piperidin-1-yl)methyl)phenyl)phosphonate], for which the EC50 in data set [1] was found to be 90.9 ± 50.8 nM; in data set [2] it was 13200 nM; in [3], 135 ± 28.4 nM; in [4], 53.3 ± 19 nM; in [5], 182 ± 40.5 nM; in data set [6], 174 ± 94.9 nM. Besides, the EC50 was 124 ± 31.4 nM in data set [7] and 104 ± 53.1 nM in data set [8]. Also, in [1], the “SI IIIB” value is 97. Besides, the “SI RES056” value in [2] was 1. The CC50 at 5 days in data set [9] was 8.78 ± 9.12 µM.

On to `CCCCOP(=O)(OCCCC)c1ccc(CN2CCC(Nc3nc(Oc4c(C)cc(/C=C/C#N)cc4C)c4sccc4n3)CC2)cc1` [15d, Dibutyl (E)-(4-((4-((4-(4-(2-cyanovinyl)-2,6-dimethylphenoxy)thieno[3,2-d]pyrimidin-2-yl)amino)piperidin-1-yl)methyl)phenyl)phosphonate], for which the EC50 in data set [1] stood at 173 ± 54 nM; in data set [2] it was 1430 ± 173 nM; in data set [3], 265 ± 84.4 nM; in data set [4] it was 188 ± 17 nM; in data set [5] it was 779 ± 316 nM; in data set [6] it was 714 ± 157 nM. Moreover, the EC50 in data set [7] was determined as 678 ± 196 nM; in [8] it was 495 ± 168 nM. Further, in data set [1], the “SI IIIB” value came out at 71. For the same compound, in data set [2], the “SI RES056” value is listed as 9. This compound displayed a CC50 at 5 days in [9] of 12.2 ± 3.91 µM.

Take `Cc1cc(/C=C/C#N)cc(C)c1Oc1nc(NC2CCN(Cc3ccc(P(=O)(OCC(F)(F)F)OCC(F)(F)F)cc3)CC2)nc2ccsc12` [15e, Bis(2,2,2-trifluoroethyl) (E)-(4-((4-((4-(4-(2-cyanovinyl)-2,6-dimethylphenoxy)thieno[3,2-d]pyrimidin-2-yl)amino)piperidin-1-yl)methyl)phenyl)phosphonate]: the EC50 was found to be 138 ± 55.8 nM in data set [1]; 747 ± 242 nM in data set [2]; 140 ± 50.5 nM in data set [3]; 139 ± 65.7 nM in data set [4]; 584 ± 272 nM in data set [5]; 497 ± 49.2 nM in data set [6]. The EC50 in [7] worked out at 423 ± 149 nM; in data set [8] it was 338 ± 37.1 nM. Also, the “SI IIIB” value in [1] turned out to be 113. Moreover, in [2], the “SI RES056” value is 21. Further, in [9], the CC50 at 5 days amounted to 15.6 ± 2.67 µM.

(Values after publication PMC11252457 (Acta Pharmaceutica Sinica. B, 2024).)
